Source: patent publication US12195452B2, “N-(4-(oxazol-5-yl)phenyl) chromane-3-carboxamide derivatives and related compounds as stimulators of the production of retinal precursor cells for the treatment of neuroretinal diseases” (ENDOGENA THERAPEUTICS, INC., priority 2018, dated 2025)

system: retinal precursor cells; experiment: Sphere passaging and high-throughput drug screening: proliferation of retinal precursor cells from the ciliary epithelium, cell number after one week; format: cell-based, mammalian; settings: control experiment (absence of a compound) = 100; cells grown for one week
Protocol: Kynurenic Acid (0.2 mg/mL), trypsin (1.33 mg/mL), and hyaluronidase (0.67 mg/mL) were weighed out and dissolved in high magnesium/low calcium artificial cerebral spinal fluid (aCSF) at 37° C. Fibroblast growth factor 2 (FGF2; 10 ng/mL) and heparin (2 μg/mL) were added to 100 mL of serum-free media (SFM). Ovomucoid trypsin inhibitor (1 mg/mL) was dissolved in warm SFM and sterile filtered ([…]).
A dissecting microscope, cold light source, and sterile surgical instruments were set up inside of a sterile biological safety cabinet (BSC). Mammalian eyes were enucleated and placed in a petri dish containing cold, sterile aCSF. Under the dissecting microscope, hair, connective tissue, and the dorsal and ventral oblique muscles were cleared from the scleral/corneal border with two sets of forceps. Next, curved or angled micro-dissecting scissors were used to cleave any remaining extraocular muscle tissue, the optic nerve, and cut the eyeball into symmetrical halves; beginning and finishing the cut from the hole left by the optic nerve. Using two sets of forceps to grasp the cornea, the two eye halves were peeled apart. The lens, optic nerve, and vitreous were separated from the eye shells and the eye shells were transferred into a new petri dish (also containing cold, sterile aCSF). To isolate the ciliary epithelium (CE), eye shells were oriented with the cornea on the right and retinal pigmented epithelium (RPE) on the left. A pair of straight forceps were used to pin down the eye shell on the RPE side while a scalpel blade was inserted between the CE and the iris, using pressure to slice the iris/cornea side off from the rest of the shell. Next, the scalpel was run along the border between the CE and the RPE to obtain the CE isolated as a thin strip of tissue. The CE strips were then transferred to a 35 mm dish containing 2 mL of dispase solution (Sigma; T1005) and incubated for 10 minutes at 37° C. Next, the strips were transferred from dispase into a 35 mm dish containing 2 mL of sterile filtered kynurenic acid, trypsin and hyaluronidase solution and incubated at 37° C. for 10 minutes. After incubation, the dish was returned to the dissecting scope, and the CE strips were pinned down with straight, non-serrated forceps, while non-serrated curved forceps were used to scrape the CE off from the underlying sclera. The bare scleral strips were then discarded, such that only the CE cells remained in the enzyme solution. Using a fire-polished, cotton-plugged glass pipette, the cells and enzyme solution were transferred to a 15 mL tube and triturated approximately 45 times to break apart the tissue. The 15 mL tube/cell suspension was centrifuged for 5 minutes at 1500 rpm. The supernatant was gently aspirated from the resulting pellet using a fire-polished, cotton-plugged glass pipette and 2 mL of trypsin inhibitor solution was added to the pellet. Using a small borehole, fire-polished, cotton-plugged glass pipette, the sample was triturated approximately 45 times until it was a single-cell suspension. The 15 mL tube/cell suspension was centrifuged for 5 minutes at 1500 rpm. The supernatant was gently aspirated from the resulting pellet and 1-2 mL of SFM with FGF2 and heparin (plating media) was added. The cells and media were mixed to ensure a uniform cell suspension and a 10 uL sample was taken and cell density was determined. The cells were then seeded and cultured at 10c/μL in culture-treated plates or flasks. After one week, roughly 1 in 500 cells proliferated to form free-floating, clonal spheres greater than 80 μm in diameter.
Human-derived spheres were passaged using the kynurenic acid, trypsin, hyaluronidase enzyme solution with the addition of collagenase I (0.5 mg/mL), collagenase II (0.5 mg/mL) and elastase (0.1 mg/mL). Mouse-derived spheres were passaged using hyaluronidase (0.67 mg/mL), collagenase I (0.5 mg/mL), and collagenase II (0.5 mg/mL) dissolved in Accustase solution (Sigma; SCR005). […]

In order of falling “Cell proliferation within one week [%]” value:
1. O=C(Nc1ccc(-c2cnco2)c(Cl)c1)C1COc2cc(F)ccc2C1 (racemic) [Compound 37, N-(3-chloro-4-(oxazol-5-yl)phenyl)-7-fluorochromane-3-carboxamide]  158%
2. N-(2-(difluoromethoxy)-4-(oxazol-5-yl)phenyl)chroman-3-carboxamide [Compound 26]  138%
3. O=C(Nc1ccc(-c2cnco2)c(Cl)c1)C1COc2c(F)cc(F)cc2C1 (racemic) [Compound 39, N-(3-chloro-4-(oxazol-5-yl)phenyl)-6,8-difluorochromane-3-carboxamide]  132%
4. O=C(Nc1ccc(-c2cnco2)c(Cl)c1)C1COc2ccccc2C1 (single isomer, unassigned; (-)) [Compound 21, (−)-N-(3-chloro-4-(1,3-oxazol-5-yl)phenyl)chromane-3-carboxamide]  126%
5. O=C(Nc1ccc(-c2cnco2)c(Cl)c1)C1Cc2ccccc2C1 (racemic) [Compound 36, N-(3-chloro-4-(oxazol-5-yl)phenyl)-2,3-dihydro-1H-indene-2-carboxamide]  124%
6. O=C(Nc1ccc(-c2cnco2)c(Cl)c1)C1COc2ccc(F)cc2C1 (stereo not drawn) [Compound 42, N-(3-chloro-4-(oxazol-5-yl)phenyl)-6-fluorochromane-3-carboxamide]  124%
7. O=C(Nc1ccc(-c2cnco2)c(Cl)c1)C1COc2ccc(Cl)cc2C1 (racemic) [Compound 38, 6-chloro-N-(3-chloro-4-(oxazol-5-yl)phenyl)chromane-3-carboxamide]  122%
8. Cc1cc(NC(=O)C2COc3ccccc3C2)ccc1-c1cnco1 (stereo not drawn) [Compound 25, N-(3-methyl-4-(oxazol-5-yl)phenyl)chromane-3-carboxamide]  120%
9. O=C(Nc1ccc(-c2cnco2)c(Cl)c1)C1COc2ccccc2O1 (racemic) [Compound 41, N-(3-chloro-4-(oxazol-5-yl)phenyl)-2,3-dihydrobenzo[b][1,4]dioxine-2-carboxamide]  114%
10. COc1cccc2c1CC(C(=O)Nc1ccc(-c3cnco3)c(Cl)c1)CO2 (racemic) [Compound 40, N-(3-chloro-4-(oxazol-5-yl)phenyl)-5-methoxychromane-3-carboxamide]  107%
11. N-(2-(difluoromethoxy)-4-(oxazol-5-yl)phenyl)chroman-3-carboxamide [Compound 27]  106%

same assay, conditions: within one week, over control

For O=C(Nc1ccc(-c2cnco2)c(Cl)c1)C1COc2ccc(Cl)cc2C1 (racemic) [Compound 38, 6-chloro-N-(3-chloro-4-(oxazol-5-yl)phenyl)chromane-3-carboxamide], the “increase of cell proliferation” value was 58%.
